In paper PMC8151276, “An Integrated Approach toward NanoBRET Tracers for Analysis of GPCR Ligand Engagement” (Molecules, 2021):

Experiments:
Assay type in all cases: binding
[1] = target: T1, CCR4 (Homo sapiens, UniProt P51679); assay: NanoBRET screen HiBiT-CCR4 in HEK293
T1 construct: purchased Promega (in-house HiBiT-GPCR construct library, NanoBRET)
T1 sequence (P51679 1-360): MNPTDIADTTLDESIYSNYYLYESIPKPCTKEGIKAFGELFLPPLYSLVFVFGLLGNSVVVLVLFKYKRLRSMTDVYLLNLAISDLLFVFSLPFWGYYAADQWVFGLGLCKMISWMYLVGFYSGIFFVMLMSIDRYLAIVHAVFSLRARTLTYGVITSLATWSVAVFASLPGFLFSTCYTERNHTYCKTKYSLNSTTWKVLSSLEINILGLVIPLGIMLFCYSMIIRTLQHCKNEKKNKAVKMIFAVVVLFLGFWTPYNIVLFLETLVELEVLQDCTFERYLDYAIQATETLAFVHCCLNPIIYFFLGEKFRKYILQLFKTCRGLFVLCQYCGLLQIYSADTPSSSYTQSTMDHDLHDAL
Description: (§1) Each tracer candidate was screened across the entire library of HiBiT-GPCR constructs using NanoBRET as the detection modality. As depicted in Figure 4A, the specificity of interactions was evaluated through decrease in BRET due to competitive displacement of a bound tracer by excess parental compound. Each tracer was analyzed for binding to each HiBiT-GPCR fusion in the absence and in the presence of competing parental compound. Briefly, HEK293 cells were transfected with HiBiT-GPCR constructs diluted into promoterless DNA to reduce expression and maximize translocation to the cell surface. Each tracer candidate was then screened at concentrations of 1 μM and 0.1 μM across cells expressing these fusions. Cells were treated for 1.5 h with tracer either alone or in the presence of 20 μM competing parental compound (i.e., control). BRET was measured upon addition of purified LgBiT and subsequent complementation with HiBiT genetically fused to a GPCR. The specificity of interactions was assessed through a decrease in BRET signal due to competitive displacement of the bound tracer. To further gauge the robustness of these interactions, the fold response over the control (i.e., BRETtracer/BRETcontrol) was calculated. We chose a 1.5-fold response, which translates to ≥7-fold signal over noise as the minimal threshold required to score an interaction as positive. […]. Below we highlight the screening results obtained for our exemplary fluorescent tracers based on Clozapine, Amitriptyline and AZD1283.
(§2) HiBiT-GPCR DNA constructs were diluted in 10 mM Tris pH 8 to a final concentration of 0.01 μg/μL, arrayed in 96-well plates and stored at −20 °C. For transfection, HEK293 cells were suspended in Opti-MEM (without phenol red) supplemented with 2% fetal bovine serum (Seradigm) and 100 units/mL penicillin–streptomycin (Gibco) at a final concentration of 220,000 cells/mL and dispensed into white 96-well plates at 90 μL/well. Subsequent transfections and screens were carried using an Agilent Bravo Automated Liquid Handling Platform. First, the 96-well HiBiT DNA arrays were diluted 25-fold in Opti-MEM (without serum or phenol red) to a final concentration of 0.0004 μg/μL and 20 μL of the diluted DNAs were transferred into new 96-well plates. Next, promoterless carrier DNA (1 μg/μL) was diluted 25-fold (0.04 μg/μL) and then dispensed into the diluted arrays at 20 μL/well. Following brief mixing, Viafect transfection reagent (Promega) diluted 16-fold into Opti-MEM was dispensed into the plates at 40 μL/well. After mixing by pipetting, plates were incubated for 10 min on the pipetting station deck. The DNA-transfection reagent complexes were then added to plates containing cells. To facilitate the screen, 10 μL of DNA-transfection reagent complexes were added in duplicates to the top 4 and bottom 4 rows, resulting in two identical 48-well arrays per plate. Plates with transfected cells were incubated for 18–20 h at 37 °C/5% CO2. A screen of each tracer across the entire library using two different concentrations requires duplicate plates of transfected cells. Depending on the number of tracers being screened, transfections can be scaled up using the same ratios. The next day, for each tracer, four 20× screening solutions in tracer dilution buffer (Promega) were prepared: two duplicates at final concentration of 20 μM and two duplicates at a final concentration of 2 μM. A competing unmodified compound was added to one of each duplicate at a final concentration of 400 μM. The four resulting solutions were diluted 4-fold in Opti-MEM without serum or phenol red to generate 5× solutions (5 µM and 0.5 µM tracer +/− 100 μM competing compound). To screen the library, a BioTek MultiFlo FX liquid dispenser was used to dispense 22.5 µL of tracer solution to the top 4 rows and 22.5 µL tracer + competing compound solution to the 4 bottom rows. Plates were briefly mixed on an orbital shaker and incubated for 1.5 h at room temperature. […]

[2] = target: T2, P2RY6 (Homo sapiens, UniProt Q15077); assay: NanoBRET screen HiBiT-P2RY6 in HEK293
T2 construct: purchased Promega (in-house HiBiT-GPCR construct library, NanoBRET)
T2 sequence (Q15077 whole entry): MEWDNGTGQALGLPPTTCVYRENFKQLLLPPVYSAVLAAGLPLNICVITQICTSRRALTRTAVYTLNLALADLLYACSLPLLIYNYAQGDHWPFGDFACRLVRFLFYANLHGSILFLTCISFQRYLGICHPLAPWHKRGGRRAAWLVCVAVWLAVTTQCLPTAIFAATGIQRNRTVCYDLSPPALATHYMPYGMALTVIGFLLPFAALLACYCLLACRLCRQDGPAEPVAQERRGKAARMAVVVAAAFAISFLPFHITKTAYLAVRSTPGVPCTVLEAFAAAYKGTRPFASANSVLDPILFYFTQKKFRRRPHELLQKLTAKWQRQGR
Description: as §1, §2

[3] = target: T3, OXTR (Homo sapiens, UniProt P30559); assay: NanoBRET screen HiBiT-OXTR in HEK293
T3 construct: purchased Promega (in-house HiBiT-GPCR construct library, NanoBRET)
T3 sequence (P30559 1-389): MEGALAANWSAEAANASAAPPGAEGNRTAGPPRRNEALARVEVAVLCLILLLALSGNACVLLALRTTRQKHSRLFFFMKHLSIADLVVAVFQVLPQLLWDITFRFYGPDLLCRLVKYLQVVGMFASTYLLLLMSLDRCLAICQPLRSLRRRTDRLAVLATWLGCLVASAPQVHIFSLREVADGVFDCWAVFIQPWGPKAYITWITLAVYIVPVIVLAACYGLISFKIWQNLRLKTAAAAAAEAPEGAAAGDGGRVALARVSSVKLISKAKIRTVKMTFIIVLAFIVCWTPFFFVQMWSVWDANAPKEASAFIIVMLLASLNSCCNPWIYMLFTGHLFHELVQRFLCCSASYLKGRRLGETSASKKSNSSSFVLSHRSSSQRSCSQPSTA
Description: as §1, §2

[4] = target: T4, GRM3 (Homo sapiens, UniProt Q14832); assay: NanoBRET screen HiBiT-GRM3 in HEK293; details: GRM3
T4 construct: purchased Promega (in-house HiBiT-GPCR construct library, NanoBRET)
T4 sequence (Q14832 23-879): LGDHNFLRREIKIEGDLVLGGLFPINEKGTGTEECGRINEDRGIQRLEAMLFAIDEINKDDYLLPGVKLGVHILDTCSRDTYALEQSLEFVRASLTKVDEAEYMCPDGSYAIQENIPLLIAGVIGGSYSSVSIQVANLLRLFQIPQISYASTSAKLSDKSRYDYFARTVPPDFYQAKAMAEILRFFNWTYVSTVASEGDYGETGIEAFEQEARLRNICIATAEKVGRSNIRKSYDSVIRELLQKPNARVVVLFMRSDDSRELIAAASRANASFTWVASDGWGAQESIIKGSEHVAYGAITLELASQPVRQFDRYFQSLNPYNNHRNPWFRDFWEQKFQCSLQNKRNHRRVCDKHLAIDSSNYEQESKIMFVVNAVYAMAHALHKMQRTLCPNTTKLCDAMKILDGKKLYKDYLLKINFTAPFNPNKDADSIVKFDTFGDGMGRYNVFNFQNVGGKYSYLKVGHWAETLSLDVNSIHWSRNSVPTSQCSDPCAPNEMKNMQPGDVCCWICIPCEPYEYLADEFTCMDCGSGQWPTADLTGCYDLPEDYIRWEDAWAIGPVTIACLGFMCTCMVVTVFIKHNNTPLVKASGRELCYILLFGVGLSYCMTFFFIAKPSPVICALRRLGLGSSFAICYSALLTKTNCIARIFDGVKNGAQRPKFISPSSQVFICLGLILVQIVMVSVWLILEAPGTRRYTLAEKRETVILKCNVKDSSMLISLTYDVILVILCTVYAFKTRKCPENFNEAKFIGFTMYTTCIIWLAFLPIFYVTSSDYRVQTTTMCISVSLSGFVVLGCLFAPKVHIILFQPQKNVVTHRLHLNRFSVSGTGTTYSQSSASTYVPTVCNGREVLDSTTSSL
Description: as §1, §2

Structure (SMILES)	NanoBRET Fold Response ([1]; CCR4, tracer 0.1μM)	NanoBRET Fold Response ([1]; CCR4, tracer 1μM)	NanoBRET Fold Response ([2]; P2RY6, tracer 0.1μM)	NanoBRET Fold Response ([2]; P2RY6, tracer 1μM)	NanoBRET Fold Response ([3]; OXTR, tracer 0.1μM)	NanoBRET Fold Response ([3]; OXTR, tracer 1μM)	NanoBRET Fold Response ([4]; tracer 0.1μM)	NanoBRET Fold Response ([4]; tracer 1μM)	NanoBRET Fold Response ([1]; tracer at 1μM)	further results
O=C(CCOCCOCCOCCOCCNC(=O)CCc1ccc2n1[B-](F)(F)[N+]1=C(c3ccc[nH]3)C=CC1=C2)NCCCN1CCN(C2=Nc3ccccc3Oc3ccc(Cl)cc32)CC1 [Loxapine-a-2-NB590]	1.03	1.19	1.26	0.94	0.97	1.02	0.99	1.03		
CN(C)CCC=C1c2ccccc2CCc2ccc(C(=O)NCCNC(=O)CCOCCOCCOCCOCCNC(=O)CCc3ccc4n3[B-](F)(F)[N+]3=C(c5ccc[nH]5)C=CC3=C4)cc21 [Amitriptyline-a-2-NB590]									1.01	NanoBRET Fold Response ([1]; tracer at 0.1μM): 0.92; NanoBRET Fold Response ([2]; tracer at 0.1μM): 1.00; NanoBRET Fold Response ([2]; tracer at 1μM): 0.94; NanoBRET Fold Response ([3]; tracer at 0.1μM): 0.99; NanoBRET Fold Response ([3]; tracer at 1μM): 1.09
O=C(CCc1ccc2n1[B-](F)(F)[N+]1=C(c3ccc[nH]3)C=CC1=C2)NCCOCCOCCNC(=O)OCCOCCN1CCN(C2=Nc3ccccc3Sc3ccccc32)CC1 [Quetiapine-a-2-NB590]	1.02	0.94	1.30	0.96	1.10	0.82	1.08	1.09		
COc1ccccc1N1CCN(CCCCN2C(=O)c3ccc(CNC(=O)CCOCCOCCOCCOCCNC(=O)CCc4ccc5n4[B-](F)(F)[N+]4=C(c6ccc[nH]6)C=CC4=C5)cc3C2=O)CC1 [NAN-190-2-NB590]	0.98	1.12	0.96	1.17	0.96		0.95			
CN1CCN(C2=Nc3cc(Cl)ccc3N(CC(=O)NCCOCCOCCOCCOCCNC(=O)CCc3ccc4n3[B-](F)(F)[N+]3=C(c5ccc[nH]5)C=CC3=C4)c3ccccc32)CC1 [Clozapine-c-2-NB590]										NanoBRET Fold Response ([1]; CCR4, 0.1μM tracer): 0.97; NanoBRET Fold Response ([1]; CCR4, 1μM tracer): 0.72; NanoBRET Fold Response ([2]; P2RY6, 0.1μM tracer): 0.97; NanoBRET Fold Response ([2]; P2RY6, 1μM tracer): 0.98; NanoBRET Fold Response ([3]; OXTR, 0.1μM tracer): 0.97; NanoBRET Fold Response ([3]; OXTR, 1μM tracer): 0.96; NanoBRET Fold Response ([4]; 0.1μM tracer): 0.93; NanoBRET Fold Response ([4]; 1μM tracer): 1.07
CN(CCC=C1c2ccccc2CCc2ccccc21)C(=O)CCOCCOCCOCCOCCNC(=O)CCc1ccc2n1[B-](F)(F)[N+]1=C(c3ccc[nH]3)C=CC1=C2 [Amitriptyline-e-2-NB590]									0.97	
